# According to US20240158392A1 (Janssen Biotech, Inc., priority 2021, published 2024):
# Target: SIK2 (Homo sapiens, UniProt Q9H0K1)
# Test: SIK2 Enzymatic Assay High Version 2 (High ATP)
# Assay type: biochemical
# Details: not given
# Experimental: All steps were performed at room temperature. Compounds were pre-plated onto an assay plate using an Echo acoustic dispenser (Labcyte, E550 or E555) at 80 nL per well. Enzyme prepared in assay buffer at 6 nM (2× final concentration) was added at 4 μL per well using the Multidrop Combi (Thermo Fisher—used for all additions in this assay) to the assay plate, spun for 1 min at 1000 rpm (Allegra 6KR Beckman Coulter centrifuge), and incubated with compound for 30 minutes. Assay buffer containing 6 mM ATP and 400 μM HDAC5tide (2× of final concentration for each substrate) was added at 4 μL per well to the assay plate and then spun as above and incubated for 2 hours. […] ADP-Glo Max Reagent (prepared and aliquoted as per manufacturer instructions) was then added at 8 μL per well, spun and incubated for 2 hours. ADP-Glo Max Detection (prepared and aliquoted as per manufacturer instructions) was added at 8 μL per well to the assay plate, which was spun and incubated for 1 hour. The plate is then read on the Pherastar (BMG Labtech) using a luminescence read. Gain is set between 2200-2500.
# Chain of SIK2 (Q9H0K1 whole entry, species assumed): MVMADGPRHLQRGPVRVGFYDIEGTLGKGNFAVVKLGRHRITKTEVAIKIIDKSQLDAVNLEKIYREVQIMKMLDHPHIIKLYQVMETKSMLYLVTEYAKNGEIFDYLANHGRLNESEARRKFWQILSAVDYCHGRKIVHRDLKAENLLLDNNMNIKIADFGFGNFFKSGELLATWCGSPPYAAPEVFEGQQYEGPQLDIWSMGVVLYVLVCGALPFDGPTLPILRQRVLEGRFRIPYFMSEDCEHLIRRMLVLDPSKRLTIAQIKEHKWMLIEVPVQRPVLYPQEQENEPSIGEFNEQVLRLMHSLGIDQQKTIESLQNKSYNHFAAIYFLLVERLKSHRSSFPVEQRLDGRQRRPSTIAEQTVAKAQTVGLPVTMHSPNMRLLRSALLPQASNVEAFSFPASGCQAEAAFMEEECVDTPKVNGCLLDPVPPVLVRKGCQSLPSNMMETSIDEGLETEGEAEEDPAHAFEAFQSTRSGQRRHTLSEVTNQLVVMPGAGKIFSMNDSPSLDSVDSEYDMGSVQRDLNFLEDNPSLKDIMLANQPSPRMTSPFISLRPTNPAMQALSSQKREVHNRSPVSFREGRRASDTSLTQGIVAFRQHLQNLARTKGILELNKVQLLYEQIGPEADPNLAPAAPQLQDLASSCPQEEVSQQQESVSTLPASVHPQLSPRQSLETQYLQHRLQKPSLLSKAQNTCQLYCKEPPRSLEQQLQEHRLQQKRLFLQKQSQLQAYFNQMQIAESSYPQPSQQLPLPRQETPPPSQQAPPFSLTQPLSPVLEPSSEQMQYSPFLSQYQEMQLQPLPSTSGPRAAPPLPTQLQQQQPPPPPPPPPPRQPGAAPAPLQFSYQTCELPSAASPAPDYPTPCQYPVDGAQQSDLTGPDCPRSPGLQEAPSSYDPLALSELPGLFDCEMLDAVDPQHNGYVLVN
row,Compound,IC50 [µM]
1,"Cc1cc(-c2ccn3nc(NC(=O)C4CC4)cc3c2)c(O[C@H]2CN(C)[C@H]2C)cn1 (single isomer, unassigned) [Example 456, (*S, *S)—N-[5-[5-(1,2-dimethylazetidin-3-yl)oxy-2-methyl-4-pyridyl]pyrazolo[1,5-a]pyridin-2-yl]cyclopropanecarboxamide]",0.0204

# Same assay, conditions: enzyme 6 nM, 6 mM ATP and 400 μM HDAC5tide (each 2× final concentration); 30 minutes pre-incubation, 2 hours; ADP-Glo Max luminescence; read-out: SIK2 high ATP IC50 (μM) (Test Example 2)
row,Compound,IC50 [µM]
1,"Cc1cc(-c2ccn3nc(Nc4cc(C)nc(C)n4)cc3c2)c(O[C@H]2CCS(=O)(=O)N(C)C2)cn1 (single isomer, unassigned) [Example 355, (*S)—N-(2,6-dimethylpyrimidin-4-yl)-5-[2-methyl-5-(2-methyl-1,1-dioxo-thiazinan-4-yl)oxy-4-pyridyl]pyrazolo[1,5-a]pyridin-2-amine]",0.00681
2,"Cc1cc(-c2ccn3nc(Nc4cc(C)nc(C)n4)cc3c2)c(OC[C@H]2CCS(=O)(=O)C2)cn1 (single isomer, unassigned) [Example 363, (*R)—N-(2,6-dimethylpyrimidin-4-yl)-5-[5-[(1,1-dioxothiolan-3-yl)methoxy]-2-methyl-4-pyridyl]pyrazolo[1,5-a]pyridin-2-amine]",0.0035
3,"Cc1cc(-c2ccn3nc(Nc4cc(C)nc(C)n4)cc3c2)c(OC[C@@H]2CCS(=O)(=O)C2)cn1 (single isomer, unassigned) [Example 364, (*S)—N-(2,6-dimethylpyrimidin-4-yl)-5-[5-[(1,1-dioxothiolan-3-yl)methoxy]-2-methyl-4-pyridyl]pyrazolo[1,5-a]pyridin-2-amine]",0.0441
4,"Cc1cc(-c2ccn3nc(NC(=O)C4CC4)cc3c2)c(O[C@H]2CCN[C@@H](C(F)(F)F)C2)cn1 (single isomer, unassigned) [Example 446]",0.00318
5,"Cc1cc(-c2ccn3nc(NC(=O)C4CC4)cc3c2)c(OC[C@@]2(F)CCNC2)cn1 (single isomer, unassigned) [Example 447, (*R)—N-[5-[5-[(3-fluoropyrrolidin-3-yl)methoxy]-2-methyl-4-pyridyl]pyrazolo[1,5-a]pyridin-2-yl]cyclopropanecarboxamide]",0.0246
6,"Cc1cc(-c2ccn3nc(NC(=O)C4CC4)cc3c2)c(OC[C@]2(F)CCNC2)cn1 (single isomer, unassigned) [Example 448, (*S)—N-[5-[5-[(3-fluoropyrrolidin-3-yl)methoxy]-2-methyl-4-pyridyl]pyrazolo[1,5-a]pyridin-2-yl]cyclopropanecarboxamide]",0.0469
7,"Cc1cc(-c2ccn3nc(NC(=O)C4CC4)cc3c2)c(OCC2(F)CCN(C)C2)cn1 (single isomer, unassigned) [Example 449, *R—N-[5-[5-[(3-fluoro-1-methyl-pyrrolidin-3-yl)methoxy]-2-methyl-4-pyridyl]pyrazolo[1,5-a]pyridin-2-yl]cyclopropanecarboxamide]",0.0472
8,"Cc1cc(-c2ccn3nc(NC(=O)C4CC4)cc3c2)c(OCC2(C)CCN2C)cn1 (single isomer, unassigned) [Example 450, (*S)—N-[5-[5-[(1,2-dimethylazetidin-2-yl)methoxy]-2-methyl-4-pyridyl]pyrazolo[1,5-a]pyridin-2-yl]cyclopropanecarboxamide]",0.04
9,"Cc1cc(-c2ccn3nc(NC(=O)C4CC4)cc3c2)c(OC[C@@H](O)C(F)(F)F)cn1 (single isomer, unassigned) [Example 454, (*R)—N-[5-[2-methyl-5-[(2R)-3,3,3-trifluoro-2-hydroxy-propoxy]-4-pyridyl]pyrazolo[1,5-a]pyridin-2-yl]cyclopropanecarboxamide]",0.0134
10,"CO[C@H]1CN(C)C[C@@H]1COc1cnc(C)cc1-c1ccn2nc(NC(=O)C3CC3)cc2c1 (single isomer, unassigned) [Example 461, Trans-*R, *R—N-[5-[5-[(4-methoxy-1-methyl-pyrrolidin-3-yl)methoxy]-2-methyl-4-pyridyl]pyrazolo[1,5-a]pyridin-2-yl]cyclopropanecarboxamide]",< 0.000847
11,"Cc1cc(-c2ccn3nc(NC(=O)C4CC4)cc3c2)c(OC[C@H](N)c2ccccc2)cn1 (single isomer, unassigned) [Example 465]",0.0129
12,"Cc1cc(-c2ccn3nc(NC(=O)C4CC4)cc3c2)c(OC[C@@H](N)c2ccccc2)cn1 (single isomer, unassigned) [Example 467]",0.0304
13,"Cc1cc(-c2ccn3nc(Nc4cccnn4)cc3c2)c(OC[C@H]2CNCC(C)(C)O2)cn1 (single isomer, unassigned) [Example 516, (*R)-5-[5-[(6,6-dimethylmorpholin-2-yl)methoxy]-2-methyl-4-pyridyl]-N-pyridazin-3-yl-pyrazolo[1,5-a]pyridin-2-amine]",0.0528
14,"Cc1cc(-c2ccn3nc(NC(=O)C4CC4)cc3c2)c(OC[C@]2(F)CCN(C)C2)cn1 (single isomer, unassigned) [Example 519, (*S)—N-[5-[5-[(3-fluoro-1-methyl-pyrrolidin-3-yl)methoxy]-2-methyl-4-pyridyl]pyrazolo[1,5-a]pyridin-2-yl]cyclopropanecarboxamide]",0.0251
15,"Cc1cc(-c2ccn3nc(NC(=O)C4CC4)cc3c2)c(OC[C@@]2(O)CCN(C)C2)cn1 (single isomer, unassigned) [Example 522, (*R)—N-[5-[5-[(3-hydroxy-1-methyl-pyrrolidin-3-yl)methoxy]-2-methyl-4-pyridyl]pyrazolo[1,5-a]pyridin-2-yl]cyclopropanecarboxamide]",0.013
16,"Cc1cc(-c2ccn3nc(Nc4cc(C)nc(C)n4)cc3c2)c(O[C@@H]2COC(C)(C)C2)cn1 (single isomer, unassigned) [Example 533, (*S)—N-(2,6-dimethylpyrimidin-4-yl)-5-[5-(5,5-dimethyltetrahydrofuran-3-yl)oxy-2-methyl-4-pyridyl]pyrazolo[1,5-a]pyridin-2-amine]",0.00543
17,"Cc1cc(-c2ccn3nc(Nc4cc(C)nc(C)n4)cc3c2)c(O[C@H]2COC[C@H]2C)cn1 (single isomer, unassigned) [Example 534, (3*R, 4*R)—N-(2,6-dimethylpyrimidin-4-yl)-5-[2-methyl-5-(4-methyltetrahydrofuran-3-yl)oxy-4-pyridyl]pyrazolo[1,5-a]pyridin-2-amine]",0.0145
18,"Cc1cc(-c2ccn3nc(Nc4cc(C)nc(C)n4)cc3c2)c(OC[C@]2(C)CCOC2)cn1 (single isomer, unassigned) [Example 535, (*R)—N-(2,6-dimethylpyrimidin-4-yl)-5-[2-methyl-5-[(3-methyltetrahydrofuran-3-yl)methoxy]-4-pyridyl]pyrazolo[1,5-a]pyridin-2-amine]",0.0107
19,"Cc1cc(-c2ccn3nc(Nc4cc(C)nc(C)n4)cc3c2)c(OC[C@@]2(C)CCOC2)cn1 (single isomer, unassigned) [Example 536, (*S)—N-(2,6-dimethylpyrimidin-4-yl)-5-[2-methyl-5-[(3-methyltetrahydrofuran-3-yl)methoxy]-4-pyridyl]pyrazolo[1,5-a]pyridin-2-amine]",0.0535
20,"Cc1cc(-c2ccn3nc(Nc4cc(C)nc(C)n4)cc3c2)c(OC[C@@H]2COC(C)(C)C2)cn1 (single isomer, unassigned) [Example 539, (*R)—N-(2,6-dimethylpyrimidin-4-yl)-5-[5-[(5,5-dimethyltetrahydrofuran-3-yl)methoxy]-2-methyl-4-pyridyl]pyrazolo[1,5-a]pyridin-2-amine]",0.0606
